Columns and labels:
rat [1] = conditions: Subchronic oral toxicity in rodents, fischer, Gavage/Intubation, dose end: 13 week, group: systemic
mouse [2] = conditions: Subchronic oral toxicity in rodents, b6c3f1, Gavage/Intubation, dose end: 13 week, group: systemic
rat [3] = conditions: Combined chronic toxicity/carcinogenicity, fischer, Oral, Gavage/Intubation, dose end: 103 week, group: systemic
dog [4] = conditions: Sub-acute repeat dose toxicity, beagle, Oral, Capsule, dose end: 1 month, group: systemic
rat [5] = conditions: Sub-acute repeat dose toxicity, sprague dawley, Oral, Gavage/Intubation, dose end: 1 month
mouse [6] = conditions: Subchronic oral toxicity in rodents, cd1, Gavage/Intubation, dose end: 3 month, group: systemic
rat [7] = conditions: Sub-acute repeat dose toxicity; sprague dawley; Oral; Gavage/Intubation; dose end: 1 month; group: systemic; systemic / hematology / blood clotting / blood clotting - prothrombin time + systemic / hematology / platelet / platelet + systemic / organ …
rat [8] = conditions: Prenatal developmental toxicity study, sprague dawley, Oral, Gavage/Intubation, dose end: 17 GD
dog [9] = conditions: Subchronic oral toxicity in nonrodent, beagle, Capsule, dose end: 3 month, group: systemic, systemic / clinical chemistry / alanine aminotransferase (alt/sgpt) / alanine aminotransferase (alt/sgpt) + systemic / clinical chemistry / …
rat [10] = conditions: Chronic toxicity; sprague dawley; Oral; Gavage/Intubation; dose end: 6 month; group: systemic; systemic / clinical chemistry / chloride / chloride + systemic / clinical chemistry / sodium / sodium + systemic / hematology / hematocrit (…
rabbit = conditions: Prenatal developmental toxicity study, new zealand white, Oral, Gavage/Intubation, dose end: 19 GD
rat [11] = conditions: Fertility (Segment I), sprague dawley, Oral, Gavage/Intubation, dose end: 7 GD
mouse [12] = conditions: Sub-acute repeat dose toxicity, cd1, Oral, Gavage/Intubation, dose end: 1 month, group: systemic
rat [13] = conditions: Prenatal developmental toxicity study, sprague dawley, Oral, Gavage/Intubation, dose end: 17 GD, group: maternal
rat [14] = conditions: Fertility (Segment I), sprague dawley, Oral, Gavage/Intubation, dose end: 7 GD, group: parental
[15] = systemic / in life observation / body weight / body weight + systemic / in life observation / clinical signs / lethargy + systemic / in life…
[16] = systemic / in life observation / body weight / body weight
[17] = systemic / in life observation / body weight / body weight + systemic / in life observation / clinical signs / altered breathing rate + …
[18] = systemic / pathology microscopic / liver / cytologic alterations + systemic / pathology microscopic / liver / hyperplasia
[19] = systemic / pathology microscopic / liver / cytologic alterations + systemic / pathology microscopic / liver / hyperplasia + systemic / …
[20] = systemic / clinical chemistry / alkaline phosphatase (alp/alk) / alkaline phosphatase (alp/alk) + systemic / clinical chemistry / …
[21] = systemic / clinical chemistry / lipids / phospholipids + systemic / pathology gross / liver / [other] + systemic / clinical chemistry / …
[22] = group: maternal, reproductive / reproductive performance / estrous cycle / abnormal
[23] = group: systemic, systemic / clinical chemistry / cholesterol / cholesterol + systemic / clinical chemistry / globulins / globulins + systemic / clinical …
[24] = group: systemic, systemic / urinalysis / specific gravity/osmolality / specific gravity/osmolality + systemic / urinalysis / volume / volume
[25] = systemic / clinical chemistry / cholesterol / cholesterol + systemic / clinical chemistry / bilirubin / total bilirubin + systemic / organ …
[26] = systemic / organ weight / liver / absolute + systemic / organ weight / liver / relative to body weight + systemic / organ weight / spleen / …
[27] = group: developmental, systemic / in life observation / body weight / fetal weight
[28] = group: maternal, reproductive / reproductive performance / preimplantation loss / preimplantation loss + systemic / in life observation / body weight / body …
[29] = group: maternal, systemic / in life observation / body weight / body weight gain + systemic / in life observation / clinical signs / piloerection + systemic…
[30] = group: maternal, reproductive / reproductive performance / postimplantation loss / postimplantation loss + reproductive / reproductive performance / …
[31] = group: maternal, systemic / in life observation / clinical signs / defecation
[32] = group: maternal, reproductive / reproductive performance / implantations / implantations + reproductive / reproductive performance / preimplantation loss / …
[33] = group: parental, systemic / in life observation / body weight / body weight gain
[34] = group: parental, systemic / in life observation / body weight / body weight gain + systemic / in life observation / clinical signs / body surface staining + …
[35] = systemic / in life observation / body weight / body weight gain + systemic / in life observation / clinical signs / drooping eyelids (ptosis…
[36] = systemic / in life observation / body weight / body weight gain + systemic / in life observation / clinical signs / piloerection + systemic…
[37] = systemic / in life observation / body weight / body weight gain + systemic / in life observation / food consumption / food consumption
[38] = systemic / in life observation / body weight / body weight gain + systemic / in life observation / food consumption / food consumption + …
[39] = systemic / in life observation / clinical signs / body surface staining

COC(N)=O [Methyl carbamate]
LOAEL (rat [1]; [15]): > 800 mg/kg/day
NEL (rat [1]; [15]): 200 mg/kg/day
NOAEL (rat [1]; [15]): ≥ 800 mg/kg/day
LEL (rat [1]; systemic / in life observation / body weight / body weight + systemic / in life observation / clinical signs / lethargy + systemic / organ …): 400 mg/kg/day
LEL (mouse [2]; [16]): 125 mg/kg/day
NEL (mouse [2]; [16]): < 125 mg/kg/day
LOAEL (mouse [2]; [17]): > 1500 mg/kg/day
NOAEL (mouse [2]; [17]): ≥ 1500 mg/kg/day
LOAEL (rat [3]; [18]): 100 mg/kg/day
NOAEL (rat [3]; [18]): < 100 mg/kg/day
LEL (rat [3]; [19]): 100 mg/kg/day
NEL (rat [3]; [19]): < 100 mg/kg/day

COc1ccc(S(=O)(=O)N2C(=O)[C@@](c3ccccc3OC)(N3C[C@H](O)C[C@H]3C(=O)N(C)C)c3cc(Cl)ccc32)c(OC)c1 [Nelivaptan]
LOAEL (dog [4]; [20]): 200 mg/kg/day
NOAEL (dog [4]; [20]): 50 mg/kg/day
LEL (dog [4]; [21]): 50 mg/kg/day
NEL (dog [4]; [21]): < 50 mg/kg/day
LEL (rat [5]; [22]): 800 mg/kg/day
LOAEL (rat [5]; [22]): > 800 mg/kg/day
NEL (rat [5]; [22]): 200 mg/kg/day
NOAEL (rat [5]; [22]): ≥ 800 mg/kg/day
LOAEL (rat [5]; [23]): 200 mg/kg/day
NOAEL (rat [5]; [23]): 50 mg/kg/day
LEL (rat [5]; [24]): 50 mg/kg/day
NEL (rat [5]; [24]): < 50 mg/kg/day
LOAEL (mouse [6]; [25]): 1000 mg/kg/day
NOAEL (mouse [6]; [25]): 500 mg/kg/day
LEL (mouse [6]; [26]): 500 mg/kg/day
NEL (mouse [6]; [26]): < 500 mg/kg/day
LEL (rat [7]): 25 mg/kg/day
LOAEL (rat [7]): > 200 mg/kg/day
NEL (rat [7]): < 25 mg/kg/day
NOAEL (rat [7]): ≥ 200 mg/kg/day
LEL (rat [8]; [27]): 750 mg/kg/day
LOAEL (rat [8]; [27]): 750 mg/kg/day
NEL (rat [8]; [27]): 300 mg/kg/day
NOAEL (rat [8]; [27]): 300 mg/kg/day
LOAEL (rat [8]; [28]): > 1500 mg/kg/day
NOAEL (rat [8]; [28]): ≥ 1500 mg/kg/day
LEL (rat [8]; [29]): 300 mg/kg/day
NEL (rat [8]; [29]): < 300 mg/kg/day
LEL (dog [9]): 100 mg/kg/day
LOAEL (dog [9]): 100 mg/kg/day
NEL (dog [9]): 25 mg/kg/day
NOAEL (dog [9]): 25 mg/kg/day
LEL (rat [10]): 25 mg/kg/day
LOAEL (rat [10]): 25 mg/kg/day
NEL (rat [10]): < 25 mg/kg/day
NOAEL (rat [10]): < 25 mg/kg/day
LEL (rabbit; [27]): 2000 mg/kg/day
LOAEL (rabbit; [27]): > 2000 mg/kg/day
NEL (rabbit; [27]): 1000 mg/kg/day
NOAEL (rabbit; [27]): ≥ 2000 mg/kg/day
LOAEL (rabbit; [30]): 1000 mg/kg/day
NOAEL (rabbit; [30]): 500 mg/kg/day
LEL (rabbit; [31]): 250 mg/kg/day
NEL (rabbit; [31]): < 250 mg/kg/day
LEL (rat [11]; [32]): 750 mg/kg/day
LOAEL (rat [11]; [32]): 750 mg/kg/day
NEL (rat [11]; [32]): 600 mg/kg/day
NOAEL (rat [11]; [32]): 600 mg/kg/day
LEL (rat [11]; [33]): 100 mg/kg/day
NEL (rat [11]; [33]): < 100 mg/kg/day
LOAEL (rat [11]; [34]): 750 mg/kg/day
NOAEL (rat [11]; [34]): 600 mg/kg/day
LOAEL (mouse [12]; [35]): > 4000 mg/kg/day
NOAEL (mouse [12]; [35]): ≥ 4000 mg/kg/day
LEL (mouse [12]; [36]): 1000 mg/kg/day
NEL (mouse [12]; [36]): < 1000 mg/kg/day
LEL (rat [13]; [37]): 150 mg/kg/day
NEL (rat [13]; [37]): < 150 mg/kg/day
LOAEL (rat [13]; [38]): > 750 mg/kg/day
NOAEL (rat [13]; [38]): ≥ 750 mg/kg/day
LOAEL (rat [14]; [37]): 750 mg/kg/day
NOAEL (rat [14]; [38]): 450 mg/kg/day
LEL (rat [14]; [39]): 150 mg/kg/day
NEL (rat [14]; [39]): < 150 mg/kg/day

— EPA's ToxRefDB 2
